US20200054643A1, “FUSED HETEROCYCLIC COMPOUNDS AS SELECTIVE BMP INHIBITORS” (Vanderbilt University, priority 2017, published 2020)

Legend:
BMP4 = BMP4 cell assay (BMP reporter); format: cell-based; conditions: Table 2
ALK2/ACVR1 = biological target: T1, ALK2/ACVR1 (Homo sapiens, UniProt Q04771); experiment: BMP Type 1 receptor assay, ALK2/ACVR1; format: biochemical
T1 sequence (Q04771 21-509): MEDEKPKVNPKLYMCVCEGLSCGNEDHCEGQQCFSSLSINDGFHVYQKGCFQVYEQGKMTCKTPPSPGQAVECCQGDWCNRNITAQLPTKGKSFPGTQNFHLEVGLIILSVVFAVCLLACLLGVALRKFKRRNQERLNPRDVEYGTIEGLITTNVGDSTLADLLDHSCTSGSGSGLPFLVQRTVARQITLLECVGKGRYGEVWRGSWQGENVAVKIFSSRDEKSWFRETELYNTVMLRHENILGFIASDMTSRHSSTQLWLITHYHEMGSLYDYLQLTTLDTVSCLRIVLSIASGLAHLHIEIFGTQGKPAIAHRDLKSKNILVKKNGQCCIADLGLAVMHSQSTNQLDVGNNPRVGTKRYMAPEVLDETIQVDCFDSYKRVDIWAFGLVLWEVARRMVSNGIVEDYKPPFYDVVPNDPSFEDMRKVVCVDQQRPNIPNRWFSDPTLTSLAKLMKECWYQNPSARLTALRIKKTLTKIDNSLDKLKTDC

ALK6/BMPR1B = ALK6/BMPR1B (Homo sapiens, UniProt O00238); experiment: BMP Type 1 receptor assay, ALK6/BMPR1B; format: biochemical
ALK3/BMPRR1A = ALK3/BMPRR1A (Homo sapiens, UniProt P36894); experiment: BMP Type 1 receptor assay, ALK3/BMPRR1A; format: biochemical
ALK5/TGFBR1 = biological target: T2, ALK5/TGFBR1 (Homo sapiens, UniProt P36897); experiment: BMP Type 1 receptor assay, ALK5/TGFBR1; format: biochemical
T2 sequence (P36897 34-503): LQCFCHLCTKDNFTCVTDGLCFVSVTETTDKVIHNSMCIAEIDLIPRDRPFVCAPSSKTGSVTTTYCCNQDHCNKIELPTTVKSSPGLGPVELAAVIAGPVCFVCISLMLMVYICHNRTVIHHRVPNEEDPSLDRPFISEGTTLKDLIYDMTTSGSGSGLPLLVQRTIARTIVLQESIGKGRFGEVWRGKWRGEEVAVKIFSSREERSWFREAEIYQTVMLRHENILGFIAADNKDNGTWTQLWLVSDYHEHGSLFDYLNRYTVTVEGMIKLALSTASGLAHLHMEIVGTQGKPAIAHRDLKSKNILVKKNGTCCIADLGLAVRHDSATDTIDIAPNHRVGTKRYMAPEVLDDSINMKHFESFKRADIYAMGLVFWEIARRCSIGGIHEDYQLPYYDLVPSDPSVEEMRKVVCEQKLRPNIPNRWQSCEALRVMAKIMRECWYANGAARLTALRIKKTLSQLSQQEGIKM

ALK1/ACVR1 = ALK1/ACVR1 (Homo sapiens, UniProt P37023); experiment: BMP Type 1 receptor assay, ALK1/ACVR1; format: biochemical
Sequence of ALK1/ACVR1 (P37023 22-503): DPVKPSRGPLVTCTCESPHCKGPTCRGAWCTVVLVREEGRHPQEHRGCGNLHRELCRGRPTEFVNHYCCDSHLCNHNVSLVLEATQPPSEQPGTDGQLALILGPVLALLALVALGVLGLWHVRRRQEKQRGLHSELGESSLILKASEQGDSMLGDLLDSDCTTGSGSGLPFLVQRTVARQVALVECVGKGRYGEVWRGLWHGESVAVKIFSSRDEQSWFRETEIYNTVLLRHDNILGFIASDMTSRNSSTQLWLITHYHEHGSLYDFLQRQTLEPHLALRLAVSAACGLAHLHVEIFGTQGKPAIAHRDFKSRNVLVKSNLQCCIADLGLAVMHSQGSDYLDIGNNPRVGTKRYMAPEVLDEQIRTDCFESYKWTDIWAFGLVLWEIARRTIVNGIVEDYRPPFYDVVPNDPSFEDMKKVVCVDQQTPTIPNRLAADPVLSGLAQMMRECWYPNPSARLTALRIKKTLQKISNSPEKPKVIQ

Sequence of ALK3/BMPRR1A (P36894 24-532): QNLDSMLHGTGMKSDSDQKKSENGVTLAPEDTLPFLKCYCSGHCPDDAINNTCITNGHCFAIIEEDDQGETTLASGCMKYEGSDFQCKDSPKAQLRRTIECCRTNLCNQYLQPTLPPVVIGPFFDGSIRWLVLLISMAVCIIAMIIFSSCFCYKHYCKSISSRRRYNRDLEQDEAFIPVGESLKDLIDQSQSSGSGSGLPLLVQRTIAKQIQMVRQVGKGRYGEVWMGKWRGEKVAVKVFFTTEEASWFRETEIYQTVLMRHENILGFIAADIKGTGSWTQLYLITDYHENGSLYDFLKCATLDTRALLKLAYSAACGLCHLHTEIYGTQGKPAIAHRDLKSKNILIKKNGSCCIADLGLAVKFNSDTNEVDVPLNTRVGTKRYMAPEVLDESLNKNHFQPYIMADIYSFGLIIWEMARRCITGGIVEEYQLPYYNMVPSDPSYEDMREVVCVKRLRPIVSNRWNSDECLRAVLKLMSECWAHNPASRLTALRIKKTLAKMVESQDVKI
Sequence of ALK6/BMPR1B (O00238 14-502): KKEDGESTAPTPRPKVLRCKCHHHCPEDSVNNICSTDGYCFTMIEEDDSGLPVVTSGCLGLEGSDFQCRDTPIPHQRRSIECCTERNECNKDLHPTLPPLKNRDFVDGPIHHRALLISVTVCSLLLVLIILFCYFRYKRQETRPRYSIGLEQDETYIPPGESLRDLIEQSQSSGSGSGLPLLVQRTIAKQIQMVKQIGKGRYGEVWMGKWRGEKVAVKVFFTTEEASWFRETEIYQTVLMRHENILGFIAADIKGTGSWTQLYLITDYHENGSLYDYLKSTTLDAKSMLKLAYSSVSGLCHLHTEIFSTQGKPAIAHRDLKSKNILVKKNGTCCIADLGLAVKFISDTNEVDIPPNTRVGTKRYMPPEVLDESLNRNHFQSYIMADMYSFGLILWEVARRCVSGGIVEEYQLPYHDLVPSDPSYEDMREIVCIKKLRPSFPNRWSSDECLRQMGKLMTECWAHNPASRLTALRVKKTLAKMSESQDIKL

SMILES	IC50 (ALK2/ACVR1) [nM]	IC50 (ALK3/BMPRR1A) [nM]	IC50 (ALK5/TGFBR1) [nM]	further results
CC(C)Oc1ccc(-c2cc3ncc(-c4ccnc5ccccc45)n3cn2)cc1				IC50 (BMP4): 8100 nM
c1ccc2c(-c3cnc4cc(-c5ccc6c(c5)OCCO6)ccn34)ccnc2c1 [Entry 5, 4-(7-(2,3-dihydrobenzo[b][1,4]dioxin-6-yl)imidazo[1,2-a]pyridin-3-yl)quinoline]	270			
c1ccc(-c2cnc3cc(-c4ccc(OCCN5CCOCC5)cc4)ccn23)cc1 [Entry 30, 4-(2-(4-(3-phenylimidazo[1,2-a]pyridin-7-yl)phenoxy)ethyl)morpholine]	645		> 100000	
CC(C)Oc1ccc(-c2ccn3c(-c4cn[nH]c4)cnc3c2)cc1 [Entry 42, 7-(4-isopropoxyphenyl)-3-(1H-pyrazol-4-yl)imidazo[1,2-a]pyridine]	1970	92	> 100000	IC50 (ALK6/BMPR1B): 895 nM; IC50 (ALK1/ACVR1): 494 nM
Cc1cc(-c2cnc3cc(-c4ccc(OC(C)C)cc4)ccn23)ccn1 [Entry 45, 7-(4-isopropoxyphenyl)-3-(2-methylpyridin-4-yl)imidazo[1,2-a]pyridine]	149		3490	
Cc1cc(-c2cnc3cc(-c4ccc(N5CCN(C)CC5)cc4)ccn23)c2ccccc2n1 [Entry 51, 2-methyl-4-(7-(4-(4-methylpiperazin-1-yl)phenyl)imidazo[1,2-a]pyridin-3-yl)quinoline]	26.5			
CN1CCN(c2ccc(-c3ccn4c(-c5ccnc6ccsc56)cnc4c3)cc2)CC1 [Entry 62, 7-(7-(4-(4-methylpiperazin-1-yl)phenyl)imidazo[1,2-a]pyridin-3-yl) thieno[3,2-b]pyridine]		50.8		
CN1CCN(c2ccc(-c3ccn4c(-c5ccncc5)cnc4c3)cc2)CC1 [Entry 66, 7-(4-(4-methylpiperazin-1-yl)phenyl)-3-(pyridin4-yl)imidazo[1,2-a]pyridine]	46			
Cc1cc(-c2cnc3cc(-c4ccc(N5CCN(C)CC5)cc4)ccn23)ccn1 [Entry 67, 7-(4-(4-methylpiperazin-1-yl)phenyl)-3-(2-methylpyridin-4-yl)imidazo[1,2-a]pyridine]	20			
c1ccc2c(-c3cnc4cc(-c5ccc(OCCN6CCOCC6)cc5)ccn34)ccnc2c1 [Example 1, 4-(2-(4-(3-(quinolin-4-yl)imidazo[1,2-a]pyridin-7-yl)phenoxy)ethyl)morpholine]				IC50 (BMP4): 62 nM
c1ccc2c(-c3cnc4cc(-c5ccc6c(c5)OCCO6)ccn34)ccnc2c1 [drawing 207]				IC50 (BMP4): 2890 nM

Continued, in another order:

IC50 (ALK2/ACVR1) [nM]	IC50 (ALK3/BMPRR1A) [nM]	IC50 (ALK5/TGFBR1) [nM]	SMILES	further results
	7.9	3960	CN1CCN(c2ccc(-c3ccn4c(-c5ccnc6ccccc56)cnc4c3)cc2)CC1 [Entry 21, 4-(7-(4-(4-methylpiperazin-1-yl)phenyl)imidazo[1,2-a]pyridin-3-yl)quinoline]	IC50 (ALK6/BMPR1B): 11 nM
155	118	13600	CC(C)Oc1ccc(-c2ccn3c(-c4ccnc(Cl)c4)cnc3c2)cc1 [Entry 25, 3-(2-chloropyridin-4-yl)-7-(4-isopropoxyphenyl)imidazo[1,2-a]pyridine]	IC50 (ALK6/BMPR1B): 340 nM; IC50 (ALK1/ACVR1): 87 nM
265		> 100000	CC(C)Oc1ccc(-c2ccn3c(-c4ccnc(F)c4)cnc3c2)cc1 [Entry 26, 3-(2-fluoropyridin-4-yl)-7-(4-isopropoxyphenyl)imidazo[1,2-a]pyridine]	
	40.1		CN1CCN(c2ccc(-c3ccn4c(-c5csc6nccnc56)cnc4c3)cc2)CC1 [Entry 60, 7-(7-(4-(4-methylpiperazin-1-yl)phenyl)imidazo[1,2-a]pyridin-3-yl)thieno [2,3-b]pyrazine]	
